Reference: patent US20130131057A1, “NEW BICYCLIC COMPOUNDS AS PI3-K AND MTOR INHIBITORS” (CENTRO NACIONAL DE INVESTIGACIONES ONCOLOGICAS (CNIO, priority 2010, published 2013)
Several values for one entry are separate records, joined by “and”; a condition that tells them apart may be missing. Equal entries are not always repeated.

Molecular target: T1, PI3K (p110α/p85α) (Homo sapiens, UniProt P42336)
T1 construct: purchased Carna Biosciences 07CBS-0402A
Experiment: PI3K activity assay (ADP Hunter Plus)
Type: biochemical
Conditions: read-out: PI3Kα IC50
Procedure: The kinase activity was measured by using the commercial ADP Hunter™ Plus assay available from DiscoveRx, (#33-016), which is a homogeneous assay to measure the accumulation of ADP, a universal product of kinase activity. The enzyme, PI3K (p110α/p85α, was purchased from Carna Biosciences (#07CBS-0402A). The assay was done following the manufacturer recommendations with slight modifications: Mainly the kinase buffer was replace by 50 mM HEPES, pH 7.5, 3 mM MgCl2, 100 mM NaCl, 1 mM EGTA, 0.04% CHAPS, 2 mM TCEP and 0.01 mg/ml BGG. The PI3K was assayed in a titration experiment to determine the optimal protein concentration for the inhibition assay. To calculate the IC50 of the ETP-compounds, serial 1:5 dilutions of the compounds were added to the enzyme at a fixed concentration (2.5 μg/ml. The enzyme was preincubated with the inhibitor and 30 μM PIP2 substrate (P9763, Sigma) for 5 min and then ATP was added to a final 50 μM concentration. Reaction was carried out for 1 hour at 25° C. Reagent A and B were sequentially added to the wells and plates were incubated for 30 min at 37° C. Fluorescence counts were read in a Victor instrument (Perkin Elmer) with the recommended settings (544 and 580 nm as excitation and emission wavelengths, respectively). Values were normalized against the control activity included for each enzyme (i.e., 100% PI3 kinase activity, without compound). These values were plot against the inhibitor concentration and were fit to a sigmoid dose-response curve by using the Graphad software.

T1 sequence (P42336 whole entry): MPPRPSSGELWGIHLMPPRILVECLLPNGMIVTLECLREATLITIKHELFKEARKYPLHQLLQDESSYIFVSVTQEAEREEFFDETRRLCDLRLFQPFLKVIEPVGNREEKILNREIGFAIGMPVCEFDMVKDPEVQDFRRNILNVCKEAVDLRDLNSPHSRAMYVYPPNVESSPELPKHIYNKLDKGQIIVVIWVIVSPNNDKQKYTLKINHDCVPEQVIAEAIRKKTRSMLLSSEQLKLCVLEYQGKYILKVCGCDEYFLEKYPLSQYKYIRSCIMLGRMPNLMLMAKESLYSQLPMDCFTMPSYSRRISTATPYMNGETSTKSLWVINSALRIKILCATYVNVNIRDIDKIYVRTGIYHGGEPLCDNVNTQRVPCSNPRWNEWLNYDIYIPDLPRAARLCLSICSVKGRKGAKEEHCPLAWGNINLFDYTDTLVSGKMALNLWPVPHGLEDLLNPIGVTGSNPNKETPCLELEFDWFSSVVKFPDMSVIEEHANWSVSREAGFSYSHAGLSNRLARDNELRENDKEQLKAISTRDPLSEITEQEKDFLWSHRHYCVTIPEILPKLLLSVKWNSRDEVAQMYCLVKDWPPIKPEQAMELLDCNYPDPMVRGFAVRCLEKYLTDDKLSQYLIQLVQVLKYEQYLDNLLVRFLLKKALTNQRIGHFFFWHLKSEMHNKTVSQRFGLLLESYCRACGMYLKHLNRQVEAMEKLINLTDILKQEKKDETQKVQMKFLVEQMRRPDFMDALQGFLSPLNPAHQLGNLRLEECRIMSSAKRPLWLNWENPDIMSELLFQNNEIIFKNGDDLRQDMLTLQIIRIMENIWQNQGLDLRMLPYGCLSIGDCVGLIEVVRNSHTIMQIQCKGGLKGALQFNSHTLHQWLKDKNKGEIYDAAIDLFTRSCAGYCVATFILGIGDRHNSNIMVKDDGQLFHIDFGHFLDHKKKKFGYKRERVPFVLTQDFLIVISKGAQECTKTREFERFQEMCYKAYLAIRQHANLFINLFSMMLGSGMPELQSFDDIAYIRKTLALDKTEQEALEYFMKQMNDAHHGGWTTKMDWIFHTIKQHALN
T1 sequence (P27986 whole entry partner): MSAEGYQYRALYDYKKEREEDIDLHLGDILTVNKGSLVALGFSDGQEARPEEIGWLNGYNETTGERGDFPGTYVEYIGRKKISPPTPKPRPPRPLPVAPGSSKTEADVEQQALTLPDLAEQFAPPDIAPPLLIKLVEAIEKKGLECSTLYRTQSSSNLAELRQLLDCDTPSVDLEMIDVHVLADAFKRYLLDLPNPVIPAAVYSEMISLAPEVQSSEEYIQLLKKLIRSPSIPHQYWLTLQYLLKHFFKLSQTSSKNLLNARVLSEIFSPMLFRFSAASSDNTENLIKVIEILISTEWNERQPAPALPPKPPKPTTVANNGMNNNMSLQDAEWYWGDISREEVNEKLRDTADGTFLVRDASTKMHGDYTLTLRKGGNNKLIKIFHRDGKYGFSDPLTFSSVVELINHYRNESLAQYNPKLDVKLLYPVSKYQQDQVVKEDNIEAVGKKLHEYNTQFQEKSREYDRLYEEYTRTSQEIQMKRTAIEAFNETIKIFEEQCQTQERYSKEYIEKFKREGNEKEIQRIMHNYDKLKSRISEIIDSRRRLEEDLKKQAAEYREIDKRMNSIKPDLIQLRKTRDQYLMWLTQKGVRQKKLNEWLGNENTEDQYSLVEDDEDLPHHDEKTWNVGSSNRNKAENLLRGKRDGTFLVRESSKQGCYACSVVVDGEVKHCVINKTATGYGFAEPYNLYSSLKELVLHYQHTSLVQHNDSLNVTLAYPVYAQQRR

Row | Structure (SMILES) | IC50
1 | NC(=O)c1cn2nc(-c3cnc(N)nc3)nc(N3CCOCC3)c2n1 [1-01] | 19 nM
2 | COCCNC(=O)c1cn2nc(-c3cnc(N)nc3)nc(N3CCOCC3)c2n1 [1-02] | 3 nM
3 | COCCNC(=O)c1cc2c(N3CCOCC3)nc(-c3cnc(N)nc3)cn2n1 [1-03] | 29 nM and < 100 nM
4 | Nc1ncc(-c2cn3nc(C(=O)NC4CCOCC4)cc3c(N3CCOCC3)n2)cn1 [1-04] | 26 nM

The next lines start with the values.

Row | IC50 | Structure (SMILES)
5 | 14 nM | NC(=O)c1cc2c(N3CCOCC3)nc(-c3cnc(N)nc3)cn2n1 [1-05, 6-(2-amino-pyrimidin-5-yl)-4-morpholin-4-yl-pyrazolo[1,5-a]pyrazine-2-carboxylic acid amide]
6 | 9 nM | Nc1ncc(-c2cn3nc(C(=O)N4CCCC4)cc3c(N3CCOCC3)n2)cn1 [1-07, [6-(2-amino-pyrimidin-5-yl)-4-morpholin-4-yl-pyrazolo[1,5-a]pyrazin-2-yl]-pyrrolidin-1-yl-methanone]
7 | 443 nM | CN(C)CCCNC(=O)c1cc2c(N3CCOCC3)nc(-c3cnc(N)nc3)cn2n1 [1-09, 6-(2-amino-pyrimidin-5-yl)-4-morpholin-4-yl-pyrazolo[1,5-a]pyrazine-2-carboxylic acid (3-dimethylamino-propyl)-amide]
8 | 16 nM | Nc1ncc(-c2cn3nc(C(=O)N[C@H]4CC[C@H](O)CC4)cc3c(N3CCOCC3)n2)cn1 [1-10, 6-(2-amino-pyrimidin-5-yl)-4-morpholin-4-yl-pyrazolo[1,5-a]pyrazine-2-carboxylic acid (4-hydroxy-cyclohexyl)-amide]
